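Five concentrations, 48 hours, 96-well plates. Abbreviation: GI50, concentration required for 50% inhibition of growth. At the TGI there is no net growth.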
Experiments:
Experiment in all cases: inhibition of tumour cell growth, NCI panel, 48 h; in the data active means GI50 below about 0.43 µM; inactive means the rest
[1] = tested on: 786-0 renal
[2] = tested on: A498 renal
[3] = tested on: A549 NSCLC
[4] = tested on: ACHN renal
[5] = tested on: BT-549 breast
[6] = tested on: CAKI-1 renal
[7] = tested on: CCRF-CEM leukemia
[8] = tested on: COLO 205 colon
[9] = tested on: DU-145 prostate
[10] = tested on: EKVX NSCLC
[11] = tested on: HCC-2998 colon
[12] = tested on: HCT-116 colon
[13] = tested on: HCT-15 colon
[14] = tested on: HL-60(TB) leukemia
[15] = tested on: HOP-62 NSCLC
[16] = tested on: HOP-92 NSCLC
[17] = tested on: HS 578T breast
[18] = tested on: HT29 colon
[19] = tested on: IGROV1 ovarian
[20] = tested on: K-562 leukemia
[21] = tested on: KM12 colon
[22] = tested on: LOX IMVI melanoma
[23] = tested on: M14 melanoma
[24] = tested on: MALME-3M melanoma
[25] = tested on: MCF7 breast
[26] = tested on: MDA-MB-231 breast
[27] = tested on: MDA-MB-435
[28] = tested on: MOLT-4 leukemia
[29] = tested on: NCI-H226 lung
[30] = tested on: NCI-H23 lung
[31] = tested on: NCI-H460 lung
[32] = tested on: NCI-H522 lung
[33] = tested on: NCI/ADR-RES ovarian
[34] = tested on: OVCAR-3 ovarian
[35] = tested on: OVCAR-4 ovarian
[36] = tested on: OVCAR-5 ovarian
[37] = tested on: OVCAR-8 ovarian
[38] = tested on: PC-3 prostate
[39] = tested on: RPMI-8226 leukemia
[40] = tested on: RXF 393 renal
[41] = tested on: SF-268 CNS
[42] = tested on: SF-295 CNS
[43] = tested on: SF-539 CNS
[44] = tested on: SK-MEL-2 melanoma
[45] = tested on: SK-MEL-5 melanoma
[46] = tested on: SK-OV-3 ovarian
[47] = tested on: SN12C renal
[48] = tested on: SNB-19 CNS
[49] = tested on: SNB-75 CNS
[50] = tested on: SR leukemia
[51] = tested on: SW-620 colon
[52] = tested on: T-47D breast
[53] = tested on: TK-10 renal
[54] = tested on: U251 CNS
[55] = tested on: UO-31 renal

CO[C@H](C(=O)[C@@H](O)[C@@H](C)O)[C@@H]1Cc2cc3cc(O[C@H]4C[C@@H](O[C@H]5C[C@@H](O)[C@H](O)C(C)O5)[C@H](O)C(C)(O)O4)cc(O)c3c(O)c2C(=O)[C@H]1O[C@H]1C[C@@H](O[C@H]2C[C@@H](O[C@H]3C[C@@H](OC)[C@H](O)C(C)O3)[C@@H](O)C(C)O2)[C@H](O)C(C)O1 (stereo not given in full)
4940 nM: TGI [8]
5340 nM: TGI [29]
8660 nM: TGI [16]
12200 nM: TGI [43]
inactive: GI50 [1] 1510 nM | GI50 [3] 828 nM | GI50 [4] 3680 nM | GI50 [5] 2040 nM | GI50 [6] > 16800 nM | GI50 [7] 5000 nM | GI50 [8] 720 nM | GI50 [9] 976 nM | GI50 [10] 1500 nM | GI50 [11] 1920 nM | GI50 [12] 542 nM | GI50 [13] > 16800 nM | GI50 [14] 11200 nM | GI50 [15] 521 nM | GI50 [16] 528 nM | GI50 [17] 708 nM | GI50 [18] 1160 nM | GI50 [19] 809 nM | GI50 [20] 951 nM | GI50 [21] 786 nM | GI50 [23] 2560 nM | GI50 [26] 1890 nM | GI50 [27] 895 nM | GI50 [28] 1200 nM | GI50 [29] 796 nM | GI50 [30] 831 nM | GI50 [31] 469 nM | GI50 [33] > 16800 nM | GI50 [34] 956 nM | GI50 [35] 1350 nM | GI50 [36] 2950 nM | GI50 [37] 1550 nM | GI50 [38] 1420 nM | GI50 [39] 833 nM | GI50 [40] 1270 nM | GI50 [41] 726 nM | GI50 [42] 666 nM | GI50 [43] 658 nM | GI50 [44] 704 nM | GI50 [45] 509 nM | GI50 [46] 671 nM | GI50 [47] 868 nM | GI50 [48] 761 nM | GI50 [51] 1310 nM | GI50 [52] 447 nM | GI50 [53] 2800 nM | GI50 [55] 4060 nM
14800 nM: TGI [32]
active: GI50 [2] 369 nM | GI50 [22] 384 nM | GI50 [24] 212 nM | GI50 [25] 185 nM | GI50 [32] 354 nM | GI50 [49] 63 nM | GI50 [50] 250 nM | GI50 [54] 387 nM
1290 nM: TGI [2]
> 16800 nM: TGI [1] | TGI [3] | TGI [4] | TGI [5] | TGI [6] | TGI [7] | TGI [9] | TGI [10] | TGI [11] | TGI [12] | TGI [13] | TGI [14] | TGI [15] | TGI [17] | TGI [18] | TGI [19] | TGI [20] | TGI [21] | TGI [22] | TGI [23] | TGI [25] | TGI [26] | TGI [27] | TGI [28] | TGI [30] | TGI [31] | TGI [33] | TGI [34] | TGI [35] | TGI [36] | TGI [37] | TGI [38] | TGI [39] | TGI [41] | TGI [42] | TGI [46] | TGI [47] | TGI [48] | TGI [50] | TGI [51] | TGI [52] | TGI [53] | TGI [54] | TGI [55]
2970 nM: TGI [45]
6840 nM: TGI [49]
7940 nM: TGI [40]
5180 nM: TGI [44]
14000 nM: TGI [24]

— PubChem BioAssay (NCI)
